Data reported in patent US10045966B2, “Compositions and methods for treating microbial infections” (Vanderbilt Univeristy, priority 2012, dated 2018).
Entries after “also recorded” stand apart in the source; their conditions may differ.

Legend:
[1] = test system: HssRS; assay: XylE reporter assay (hrtAB promoter-xylE fusion) for HssRS activation; assay type: cell-based, S. aureus; conditions: for HssRS activation (XylE reporter activity): S. aureus carrying phrt.xylE; for HssRS activation in heme auxotroph ΔhemB: S. aureus hemB::ermC (ΔhemB) carrying phrt.xylE
Experimental: (§1) FIGS. 9A-9C describe a high throughput screen that identifies small molecule activators of HssRS. (A) A secondary screen consisting of a XylE reporter assay verified the activity of the top 110 hits from the primary screen, including '882. Triplicate cultures of S. aureus WT and ΔhssR transformed with the hrtAB promoter-xylE fusion-containing plasmid (phrt.xylE) were grown in the presence of the indicated additive and XylE activity was measured. (B) The structure of lead compound VU0038882 (′882). (C) '882 was confirmed as a hit in a tertiary screen that measured the ability of the compound to pre-adapt S. aureus for growth in 20 μM heme. Triplicate cultures of WT S. aureus were grown overnight in medium containing the indicated additive and sub-cultured into medium containing 20 μM heme. Growth was monitored by measuring the optical density at 600 nm (OD600) over time. (A and C) Error bars represent one standard deviation from the mean.
The present inventors designed and conducted a screening assay to identify activators of HssRS. With reference to FIG. 2A, a reporter plasmid containing the luxABCDE operon from Photorhabdus luminescens driven by the hrtAB promoter (phrt.lux) was used to screen 160,000 compounds from the VICB small molecule library with luminescence. With reference to FIG. 2B, 110 of the top hits from the primary screen were confirmed in a secondary screen using a xylE reporter gene driven by the hrtAB promoter (phrt.xylE). […] Activation of HssRS by a sub-toxic concentration of heme protects S. aureus from a subsequent toxic concentration of heme by upregulating HrtAB. The inhibition of growth due to heme toxicity is determined by measuring the optical density of bacterial cultures at 600 nm. In each screen the present inventors identified hits by comparing their activity to that of heme. […] Cultures of wildtype and ΔhssR carrying phrt.xylE were assayed for XylE activity upon '8882 treatment. The screening method designed by the present inventors as able to successfully identify small molecule activators of the S. aureus heme stress response.
Analogs of '882 were divided into two classes, and chemical modifications of both the Western-naphthol ring and the Eastern-furan ring were conducted. Each set was screened against the XylE assay with heme and '882 as standards for comparison. […] Examples of synthesized compounds and their activity classifications are shown above.

[2] = test system: S. aureus; assay: Pre-adaptation for heme toxicity, growth curve analysis; assay type: cell-based; conditions: overnight pre-treatment, subculture into 20 μM heme
Experimental: as §1, with “(A and C) Error bars represent one standard deviation from the mean.” left out
The present inventors designed and conducted a screening assay to identify activators of HssRS. With reference to FIG. 2A, a reporter plasmid containing the luxABCDE operon from Photorhabdus luminescens driven by the hrtAB promoter (phrt.lux) was used to screen 160,000 compounds from the VICB small molecule library with luminescence. […] The inhibition of growth due to heme toxicity is determined by measuring the optical density of bacterial cultures at 600 nm. […]

[3] = test system: S. aureus; assay type: cell-based; conditions: for Growth of ΔmenB (cannot respire, solely ferments): S. aureus ΔmenB, aerobic and anaerobic
[4] = test system: S. aureus; assay: Systemic staphylococcal infection in mice, liver CFUs and abscesses; assay type: in vivo; conditions: mice infected intravenously, intraperitoneal treatment, 96 h
Experimental: FIGS. 16A-16D show embodiments of the preset invention reduce S. aureus pathogenesis in vivo. Mice infected retroorbitally with S. aureus were treated intraperitoneally with vehicle (10% Tween 80) or '373. After 96 h mice were sacrificed and (A) CFUs and (B) surface abscesses were enumerated from the livers. Each marker represents an individual mouse. Data were collected from three independent experiments resulting in n=13 for vehicle and n=12 for '373-treated mice once the highest and lowest values were removed from each group. The horizontal line indicates the mean and the error bars represent the standard error of the mean. Statistical significance was determined by a two-tailed Student's t-test. Livers from mice treated with the indicated dose of '373 were harvested 24 h post-infection (1 h after the 2nd treatment), sectioned, and mounted on MALDI target plates (C). (D) Tissue sections were imaged by MALDI-MS/MS for accumulation of a fragment of '373 by MALDI-MS/MS (m/z 255.2→134). Spectra were acquired at 10 microscans per step. 5 laser shots were acquired per pixel and pixels were obtained every 100 μm.

[5] = Liver tissue level by Imaging Mass Spectrometry and HPLC-MS; conditions: HPLC-MS of excised liver, 24 h post-infection
[6] = test system: Corynebacterium diphtheriae; assay: Adaptation to heme toxicity, CFU enumeration; assay type: cell-based; conditions: C. diphtheriae, subculture into 15 μM heme, versus non-adapted cultures
[7] = test system: Staphylococcus haemolyticus; assay: Adaptation to heme toxicity, growth curve; assay type: cell-based; conditions: S. haemolyticus, subculture into 30 μM heme, versus non-adapted cultures
[8] = test system: intracellular heme; assay: Intracellular heme quantification; assay type: cell-based, S. aureus; conditions: for Intracellular (endogenous) heme levels: pyridine hemochromogen assay / UPLC-MS
Experimental: (B) Heme levels in triplicate cultures of S. aureus treated with the indicated additive were quantified using the pyridine hemochromogen assay and normalized to the concentration of protein in the whole cell lysates. […] (A and B) Error bars represent one standard deviation from the mean. (C) Exact-mass mass spectrometric analysis was used in conjunction with UPLC to detect and quantify heme in protoplasts from cells treated with 40 μM '882 or vehicle grown in triplicate. Measured heme molecules were referenced to estimated CFUs per pellet, factoring in dilutions. Dead or lysed cells would also contribute to the measurement. […] Samples measured in duplicate or triplicate injections had typical errors of <5% between analytical replicates. Error bars represent the standard deviation and significance was calculated using a two-tailed Student's t-test.
Heme levels were quantified using the pyridine hemochromogen assay and normalized to the concentration of protein in the whole cell lysates.
To directly test if '882 exposure increases heme levels within staphylococci, intracellular heme abundance was measured using two distinct approaches. First, intracellular heme levels were quantified using a commercially available heme quantification kit (BioAssay systems).

[9] = test system: IsdG; assay: IsdG abundance by immunoblot as reporter of cytoplasmic heme; assay type: cell-based, S. aureus
Experimental: Wild type and ΔhemV S. aureus transformed with isdG driven under the constitutive Igt promoter (pIgt.isdG) were grown in the presence of increasing concentrations of '8882. Whole cell lysates, along with a protein standard, were blotted with anti IsdG polyclonal antisera and IsdG levels were quantified by densitometry.
Second, the intracellular abundance of the heme stabilized protein IsdG was used as a barometer of functional cytoplasmic heme levels (43), i.e., IsdG is a heme stabilized protein that can be used as a reporter for intracellular heme levels. With reference to FIG. 4A, S. aureus ΔisdG and ΔhemB were transformed with a plasmid that constitutively expresses IsdG (plgt.isdG). These strains were grown to stationary phase in the presence of the indicated concentration of '8882 or heme. Whole cell lysates were immunoblotted with anti-IsdG polyclonal antisera and bands were quantified using densitometry.
To determine if the endogenous heme produced as a result of '882 exposure is available for use in cellular processes, cytoplasmic heme availability was measured by quantifying intracellular levels of the cytoplasmic heme oxygenase IsdG. In the absence of exogenous heme, IsdG is rapidly degraded; however, heme binding stabilizes IsdG and reduces its proteolytic degradation. Therefore, the abundance of IsdG reflects the cytoplasmic levels of heme.

[10] = test system: C. diphtheriae; assay: Growth of C. diphtheriae; assay type: cell-based
[11] = test system: S. aureus; assay: Fermentative activity: pH, D-glucose and lactate in culture supernatants; assay type: cell-based; conditions: aerobic cultures
Experimental: FIGS. 12A-12C show examples of the present invention diminish fermentative activity. S. aureus was grown in triplicate under aerobic conditions in the presence of vehicle (black lines) or 40 μM '882 (gray lines). At the indicated time intervals, culture supernatants were sampled and the (A) pH, (B) D-glucose, and (C) D- and L-lactate were quantified. Error bars represent one standard deviation from the mean.
(§2) The effects of '8882 on fermentation was studied. With reference to FIG. 7A, S. aureus was grown in the presence of the indicated concentration of '8882 or cyanide. Growth was monitored over time by measuring the optical density at 600 nm and normalized to vehicle treated S. aureus. With reference to FIG. 7B, the concentration of glucose and lactate was measured in supernatants collected from S. aureus cultures containing vehicle or '8882. With reference to FIG. 7C, S. aureus grown in the presence or absence of '8882 was subjected to nitric oxide stress after 5 hours of growth. With reference to FIG. 7D, S. aureus was incubated with murine neutrophils in media containing either vehicle or '8882. Bacterial viability was determined by enumerating colony forming units on solid media.

[12] = test system: S. aureus; assay type: cell-based; conditions: 24 h; for Viable and gentamicin-resistant bacteria, single agent: treatment alone
Experimental: (A) S. aureus wildtype (WT, dashed lines), the menaquinone auxotroph (ΔmenB, dotted lines), and the heme auxotroph hemB::ermC (ΔhemB, solid lines) were grown in triplicate under aerobic (aer, black lines) and anaerobic (ana, gray lines) conditions in the presence of the indicated log of the concentration of '882 (μM). After 18 h the absorbance at 600 nm (OD600) was measured and normalized to vehicle (DMSO) treated bacteria. Curves were fit by nonlinear regression analysis and absolute log IC50 values were calculated in Prism with the top set at 1.0 and the bottom set at 0.15. […] Error bars represent the standard error of the mean. (B) Triplicate cultures of S. aureus were grown in the presence of the indicated additive. […] Shown is the average of three independent experiments. Error bars represent one standard deviation from the mean. (C) S. aureus was grown in the presence of vehicle (DMSO) or 40 μM '882 and coated in serum. Murine PMNs were elicited with casein and harvested from the peritoneum. The ability of neutrophils to kill S. aureus in the presence of '882 was assessed by comparing CFUs recovered from neutrophil-exposed S. aureus to those recovered from identical conditions lacking neutrophils. The mean of at least six independent experiments performed in triplicate are represented by the data; error bars represent standard error of the mean and significance was determined by a two-tailed Student's t-test.
S. aureus SCVs are obligate fermenters that emerge in response to aminoglycoside treatment. […] To test this, S. aureus was grown in the presence of vehicle, gentamicin, '882, or a combination of gentamicin and '882, and the evolution of gentamicin resistance was monitored.

[13] = test system: S. aureus Newman; assay: Co-treatment with kanamycin, CFU enumeration after 24 h; assay type: cell-based; conditions: TSB
Experimental: With reference to FIG. 8A, S. aureus Newman was cultured in TSB containing the indicated amount of kanamycin or '8882. After 24 h colony forming units (CFUs) were enumerated on solid medium. The dashed line indicates the limit of detection (LOD) and the asterisk denotes that two of the three replicates were below the LOD. Turning to FIG. 8B, 50 ul of each experimental groups was plated on TSA at a dilution of 1:100 except for the co-treatment group, which was plated undiluted. Two of the three co-treated replicates had no viable colonies.

[14] = test system: S. aureus; assay: Neutrophil killing of S. aureus; assay type: cell-based; conditions: murine PMNs, 40 μM
[15] = test system: neutrophils; assay type: cell-based, Murine
[16] = test system: S. aureus; assay: Nitric oxide stress of S. aureus; assay type: cell-based; conditions: simultaneous exposure to NO.
Experimental: as §2

[17] = Chemical stability, rule of five and solubility; conditions: free base and trifluoroacetate salt

Compound: Oc1ccccc1-c1cc(-c2ccccc2F)[nH]n1 ['373]
- HssRS activation (XylE reporter activity) [1]: activates HssRS
- Pre-adaptation of S. aureus for heme toxicity [2]: pre-adapt S. aureus for heme toxicity
- Growth of ΔmenB (cannot respire, solely ferments) [3]: inhibits the growth of S. aureus ΔmenB, although to a lesser extent than '882
- Decrease in CFUs recovered from the livers versus vehicle [4]: 1 log
- Number of liver abscesses [4]: significant reduction in the number of liver abscesses
- Liver tissue level versus dose [5]: linear relationship between tissue level and dose

Compound: Oc1c(-c2cc(-c3ccco3)[nH]n2)ccc2ccccc12 ['882]
- HssRS activation (XylE reporter activity) [1]: activates the hrtAB promoter in a dose-responsive manner
- HssRS activation (XylE reporter activity) ([1]; listed as '8882): most potent activator of HssRS
- HssRS activation in heme auxotroph ΔhemB [1]: does not activate HssRS in ΔhemB
- Pre-adaptation of S. aureus for heme toxicity [2]: pre-adapts S. aureus for heme toxicity
- Survival in heme after pre-treatment [6]: improved survival in heme
- Survival in heme after pre-treatment [7]: improved survival in heme
- Increase of intracellular heme versus non-exposed bacteria ([8]; commercial heme quantification kit (BioAssay systems)): approximately 10%
- Intracellular (endogenous) heme levels [8]: increase in a dose-responsive manner
- Intracellular abundance of IsdG ([9]; S. aureus constitutively expressing IsdG): increases the abundance of IsdG in a concentration-dependent fashion
- Stabilization of IsdG in ΔhemB ([9]; S. aureus ΔhemB): not stabilized
- Bacteriostatic or bacteriocidal (CFU input versus output) [3]: bacteriostatic to fermentatively growing staphylococci
- Concentration that halts S. aureus growth [3]: less than 5 μM
- Growth of ΔhemB (SCV deficient in heme biosynthesis) ([3]; S. aureus ΔhemB): sensitive to '882
- Growth of ΔmenB (cannot respire, solely ferments) [3]: more susceptible to '882 toxicity than wildtype; also recorded: bacteriostatic
- Growth of wildtype S. aureus grown anaerobically ([3]; anaerobic): growth was dramatically reduced
- Growth of S. aureus in combination with potassium cyanide (KCN) ([3]; combined with KCN, aerobic): growth is inhibited, even under aerobic conditions
- Growth of C. diphtheriae [10]: inhibits the growth of C. diphtheriae
- Glycolytic / fermentative activity (acidification, D-glucose consumption, lactate production) [11]: reduced glycolytic activity
- Glycolytic / fermentative activity (acidification, D-glucose consumption, lactate production) ([11]; listed as '8882): reduces the ability of S. aureus to ferment
- Gentamicin-resistant colonies, combination with gentamicin ([12]; combined with gentamicin): eliminated all detectable gentamicin-resistant colonies
- Reduction in bacterial viability, combination with gentamicin ([12]; combined with gentamicin): 5 log
- Viable and gentamicin-resistant bacteria, single agent [12]: did not affect the number of viable or gentamicin-resistant bacteria
- Antibiotic efficacy on co-treatment with kanamycin [13]: improves antibiotic efficacy in vitro
- Neutrophil-dependent killing of S. aureus [14]: improves neutrophil-dependent killing of S. aureus
- Neutrophil viability [15]: does not overtly affect neutrophil viability
- Antibacterial effect of simultaneous exposure with nitric oxide (NO.) [16]: more antibacterial than treatment with either molecule alone
- Chemical stability [17]: good chemical stability
- Rule of five violations [17]: no rule of five violations
- Solubility ([17]; DMSO and aqueous solution): good solubility in DMSO and aqueous solution

Compound: O=CC[C@@H](O)[C@H](O)[C@H](O)CO [Compound 2dG, 2-deoxyglucose, reference compound]
- Intracellular (endogenous) heme levels [8]: reduces endogenous heme levels

Compound: C=CC1=C(C)c2cc3[n-]c(cc4[n-]c(cc5nc(cc1n2)C(C)=C5C=C)c(C)c4CCC(=O)O)c(CCC(=O)O)c3C.[Fe+2] [heme, reference compound]
- HssRS activation in heme auxotroph ΔhemB [1]: activates HssRS in ΔhemB
- Survival in heme after pre-treatment [6]: improved survival in heme
- Survival in heme after pre-treatment [7]: improved survival in heme

Compound: gentamicin [reference compound]
- Viable and gentamicin-resistant bacteria, single agent [12]: became resistant to gentamicin
